Nine molecules from patent US8318769B2, “Substituted sulfonamide compounds” (Gruenethal GmbH, priority 2008, dated 2012) can be followed below.

The target in assay [1] is T1, human bradykinin 1 receptor (B1R) (Homo sapiens, UniProt P46663).
T1 construct: expressed in transfected cells
T1 sequence (P46663 1-353): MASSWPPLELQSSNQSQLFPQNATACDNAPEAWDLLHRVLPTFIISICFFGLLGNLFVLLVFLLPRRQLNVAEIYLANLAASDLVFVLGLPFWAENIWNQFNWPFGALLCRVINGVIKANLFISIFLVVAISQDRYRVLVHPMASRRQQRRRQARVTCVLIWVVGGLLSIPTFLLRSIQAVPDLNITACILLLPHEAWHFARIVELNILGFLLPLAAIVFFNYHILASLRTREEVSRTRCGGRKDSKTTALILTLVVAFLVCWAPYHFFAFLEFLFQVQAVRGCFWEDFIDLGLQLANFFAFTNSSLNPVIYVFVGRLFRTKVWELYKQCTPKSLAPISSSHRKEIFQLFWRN
Kind of assay: FLIPR Ca2+ assay, B1R antagonism, human. The conditions noted are these: 10 μM test substance, CHO K1 cells with human B1R gene (hB1R cells), Lys-Des-Arg9-bradykinin at EC80, % inhibition compared with the maximum achievable inhibition; for inhibition at 10 µM: read-out: B1R antagonism, human [10 μM] % inhibition. It counts as cell-based. As for the experimental part:
(§1) The agonistic or antagonistic action of substances can be quantified on the bradykinin 1 receptor (B1R) of the human and rat species with ectopically expressing cell lines (CHO K1 cells) and with the aid of a Ca^2+-sensitive dyestuff (Fluo-4) in a fluorescent imaging plate reader (FLIPR). The figure in % activation is based on the Ca^2+ signal after addition of Lys-Des-Arg^9-bradykinin (0.5 nM) or Des-Arg^9-bradykinin (100 nM). Antagonists lead to a suppression of the Ca^2+ inflow after addition of the agonist. % inhibition compared with the maximum achievable inhibition is stated.
(§2) The agonistic or antagonistic action of substances can be determined on the bradykinin 1 receptor (B1R) of the human and rat species with the following assay. In accordance with this assay, the Ca^2+ inflow through the channel is quantified with the aid of a Ca^2+-sensitive dyestuff (type Fluo-4, Molecular Probes Europe BV, Leiden, Holland) in a fluorescent imaging plate reader (FLIPR, Molecular Devices, Sunnyvale, USA).
(§3) Chinese hamster ovary cells (CHO K1 cells) transfected stably with the human B1R gene (hB1R cells) or the B1R gene of the rat (rB1R cells) are used. For functional studies, these cells are plated out on black 96-well plates with a clear base (BD Biosciences, Heidelberg, Germany or Greiner, Frickenhausen, Germany) in a density of 20,000-35,000 cells/well. The cells are left overnight at 37° C. and 5% CO2 in culture medium (hB1R cells: Nutrient Mixture Ham's F12, Gibco Invitrogen GmbH, Karlsruhe, Germany or DMEM, Sigma-Aldrich, Taufkirchen, Germany; rB1R cells: D-MEM/F12, Gibco Invitrogen GmbH, Karlsruhe, Germany) with 10 vol. % FBS (foetal bovine serum, Gibco Invitrogen GmbH, Karlsruhe, Germany or PAN Biotech GmbH, Aidenbach, Germany).
(§4) On the following day, the cells are loaded for 60 min at 37° C. with 2.13 μM Fluo-4 (Molecular Probes Europe BV, Leiden, Holland) in HBSS buffer (Hank's buffered saline solution, Gibco Invitrogen GmbH, Karlsruhe, Germany) with 2.5 mM probenecid (Sigma-Aldrich, Taufkirchen, Germany) and 10 mM HEPES (Sigma-Aldrich, Taufkirchen, Germany). The plates are then washed 2× with HBSS buffer, and HBSS buffer which additionally contains 0.1% BSA (bovine serum albumin; Sigma-Aldrich, Taufkirchen, Germany), 5.6 mM glucose and 0.05% gelatine (Merck KGaA, Darmstadt, Germany) is added. After a further incubation of 20 minutes at room temperature, the plates are inserted into the FLIPR for the Ca^2+ measurement.
(§5) Alternatively, the plates are washed with buffer A (15 mM HEPES, 80 mM NaCl, 5 mM KCl, 1.2 mM CaCl2, 0.7 mM MgSO4, 2 g/l glucose, 2.5 mM probenecid), buffer A is added and the plates are loaded with 2.5 μM Fluo-4 and 0.025% Pluronic F127 (Sigma-Aldrich, Taufkirchen, Germany). Thereafter, the cells are washed 2× with buffer A and incubated for 30 minutes with buffer A, which additionally contains 0.05% BSA and 0.05% gelatine, at room temperature and thereafter inserted into the FLIPR for the Ca^2+ measurement.
(§6) The Ca^2+-dependent fluorescence is measured here before and after addition of substances (λex=488 nm, λem=540 nm). Quantification is by measurement of the highest fluorescence intensity (FC, fluorescence counts) over time.
(§7) The FLIPR protocol consists of 2 additions of substance. Test substances (10 μM) are first pipetted on to the cells and the Ca^2+ inflow is compared with the control (hB1R: Lys-Des-Arg^9-bradykinin >=50 nM; rB1R: Des-Arg^9-bradykinin 10 μM). This gives the figure in % activation based on the Ca^2+ signal after addition of Lys-Des-Arg^9-bradykinin (>=50 nM) or Des-Arg^9-bradykinin (10 μM).
(§8) After incubation for 10-20 minutes, Lys-Des-Arg^9-bradykinin (hB1R) or Des-Arg^9-bradykinin (rB1R) in the concentration of the EC80 is applied and the inflow of Ca^2+ is likewise determined. Antagonists lead to a suppression of the Ca^2+ inflow. % inhibition compared with the maximum achievable inhibition is calculated. […]

In assay [2] the target is T2, bradykinin 1 receptor (B1R) of the rat (Rattus norvegicus, UniProt P97583).
T2 construct: expressed in transfected cells
T2 sequence (P97583 1-337): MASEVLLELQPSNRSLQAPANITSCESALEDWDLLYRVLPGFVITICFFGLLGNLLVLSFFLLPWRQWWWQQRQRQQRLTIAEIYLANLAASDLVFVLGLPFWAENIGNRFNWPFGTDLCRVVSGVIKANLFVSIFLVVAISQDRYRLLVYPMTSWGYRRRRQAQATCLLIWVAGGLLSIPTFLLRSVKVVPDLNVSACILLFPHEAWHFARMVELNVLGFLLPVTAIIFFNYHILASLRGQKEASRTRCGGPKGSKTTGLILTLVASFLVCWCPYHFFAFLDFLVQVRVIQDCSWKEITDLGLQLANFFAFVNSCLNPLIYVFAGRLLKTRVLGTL
The assay can be described thus: FLIPR Ca2+ assay, B1R antagonism, rat. It counts as cell-based. The conditions noted are these: CHO K1 cells with rat B1R gene (rB1R cells), Des-Arg9-bradykinin at EC80, % inhibition compared with the maximum achievable inhibition; for inhibition at 10 µM: CHO-K1, 10 μM test substance, read-out: B1R antagonism, rat [10 μM] % inhibition. The method, then: as §1, §2, §3, §4, §5, §6, §7, §8

In the case of `O=C(CCCC1CCCCN1S(=O)(=O)c1ccccc1C(F)(F)F)N1CCC(OCCN2CCCC2)(c2cccnc2)CC1` (stereo not shown) [Example 8, 1-(4-(pyridin-3-yl)-4-(2-(pyrrolidin-1-yl)ethoxy)piperidin-1-yl)-4-(1-(2-(trifluoromethyl)phenylsulfonyl)piperidin-2-yl)butan-1-one], the inhibition at 10 µM in assay [1] turned out to be 70%; in assay [2], 60%.

Regarding `COc1cc(C)c(S(=O)(=O)N2CCCC[C@H]2COCC(=O)N2CCC(COCCN3CCCC3)(c3cccnc3)CC2)c(C)c1` [Example 49, (S)-2-((1-(4-methoxy-2,6-dimethylphenylsulfonyl)piperidin-2-yl)methoxy)-1-(4-(pyridin-3-yl)-4-((2-(pyrrolidin-1-yl)ethoxy)methyl)piperidin-1-yl)ethanone], the inhibition at 10 µM was 97% in assay [1] and 104% in assay [2].

Consider `COc1cc(C)c(S(=O)(=O)N(C)CCOCC(=O)N2CCC(OCCN3CCCC3)(c3cccc(F)c3)CC2)c(C)c1C` [Example 114, N-[2-[2-[4-(3-fluorophenyl)-4-(2-pyrrolidin-1-yl-ethoxy)-piperidin-1-yl]-2-oxo-ethoxy]-ethyl]-4-methoxy-N,2,3,6-tetramethyl-benzenesulfonic acid amide], for which the values for the inhibition at 10 µM in assay [1] and in assay [2] were 100% and 99%, respectively.

Regarding `O=C(COCC1CCc2ccccc2N1S(=O)(=O)c1ccc(Cl)c(Cl)c1)N1CCC(OCCCN2CCCC2)(c2cccnc2)CC1` (stereo not shown) [Example 45, 2-((1-(3,4-dichlorophenylsulfonyl)-1,2,3,4-tetrahydroquinolin-2-yl)methoxy)-1-(4-(pyridin-3-yl)-4-(3-(pyrrolidin-1-yl)propoxy)piperidin-1-yl)ethanone], the values for the inhibition at 10 µM in assay [1] and in assay [2] were 76% and 103%, respectively.

For `O=C(CC(NS(=O)(=O)c1ccc2ccccc2c1)c1ccccc1)N1CCC(OCCN2CCCCC2)(c2cccnc2)CC1` (stereo not shown) [Example 11, N-(3-oxo-1-phenyl-3-(4-(2-(piperidin-1-yl)ethoxy)-4-(pyridin-3-yl)piperidin-1-yl)propyl)naphthalene-2-sulfonamide], the inhibition at 10 µM in assay [1] came out at 103%; in assay [2], 52%.

`COc1cc(C)c(S(=O)(=O)N(C)CCOCC(=O)N2CCC(OCCN3CCN(C)CC3)(c3cccnc3)CC2)c(C)c1` [Example 29, 4-methoxy-N,2,6-trimethyl-N-(2-(2-(4-(2-(4-methylpiperazin-1-yl)ethoxy)-4-(pyridin-3-yl)piperidin-1-yl)-2-oxoethoxy)ethyl)benzenesulfonamide]: the inhibition at 10 µM in assay [1] stood at 99%; in assay [2], 101%.

As to `Cc1cccc(Cl)c1S(=O)(=O)N1c2ccccc2OCC1COCC(=O)N1CCC(OCCN2CCCC2)(c2cccc(F)c2)CC1` (stereo not shown) [Example 109, 2-[[4-[(2-chloro-6-methyl-phenyl)sulfonyl]-3,4-dihydro-2H-[1,4]benzoxazin-3-yl]-methoxy]-1-[4-(3-fluorophenyl)-4-(2-pyrrolidin-1-yl-ethoxy)-piperidin-1-yl]-ethanone], the inhibition at 10 µM in assay [1] is 91%; in assay [2], 99%.

For the molecule `COc1cc(C)c(S(=O)(=O)N2CCCCC2CCCC(=O)N2CCC(OCCN3CCCC3)(c3cccnc3)CC2)c(C)c1` (stereo not shown) [Example 88, 4-[1-[(4-methoxy-2,6-dimethyl-phenyl)sulfonyl]-piperidin-2-yl]-1-[4-pyridin-3-yl-4-(2-pyrrolidin-1-yl-ethoxy)-piperidin-1-yl]-butan-1-one], the “B1R antagonism, human [10 μM] % inhibition” value in assay [1] was found to be 100%.

As for `COc1cc(C)c(S(=O)(=O)N2CCCCC2CCOCC(=O)N2CCC(OCCN3CCCC3)(c3cccc(F)c3)CC2)c(C)c1` (stereo not shown) [Example 126, 1-[4-(3-fluorophenyl)-4-(2-pyrrolidin-1-yl-ethoxy)-piperidin-1-yl]-2-[2-[1-[(4-methoxy-2,6-dimethyl-phenyl)sulfonyl]-piperidin-2-yl]-ethoxy]-ethanone], the “B1R antagonism, rat [10 μM] % inhibition” value in assay [2] (10 μM test substance, 10 µM) was determined as 98%.
